According to ChEMBL document CHEMBL4251615, “Discovery of anilino-furo[2,3-d]pyrimidine derivatives as dual inhibitors of EGFR/HER2 tyrosine kinase and their anticancer activity” (Eur J Med Chem, 2018):

Test system: NCI-H522
Assay: Growth inhibition of human NCI-H522 cells assessed as cell growth at 10 uM incubated for 48 hrs by sulforhodamine B assay relative to control
Assay type: functional
Conditions: NCI-H522, 48 h, read-out: Activity

SMILES	growth at 10 µM [%]
Cc1cccc(Nc2ncnc3oc(C)c(C(=O)NCCO)c23)c1	91.8

Test system: SK-MEL-2
Assay: Growth inhibition of human SK-MEL-2 cells assessed as cell growth at 10 uM incubated for 48 hrs by sulforhodamine B assay relative to control
Assay type: functional
Conditions: SK-MEL-2, 48 h, read-out: Activity

SMILES	growth at 10 µM [%]
Cc1cccc(Nc2ncnc3oc(C)c(C(=O)NCCO)c23)c1	113

Test system: PC-3
Assay: Growth inhibition of human PC3 cells assessed as cell growth at 10 uM incubated for 48 hrs by sulforhodamine B assay relative to control
Assay type: functional
Conditions: PC-3, 48 h, read-out: Activity

SMILES	growth at 10 µM [%]
Cc1cccc(Nc2ncnc3oc(C)c(C(=O)NCCO)c23)c1	96.1

Test system: BT-549
Assay: Growth inhibition of human BT549 cells assessed as cell growth at 10 uM incubated for 48 hrs by sulforhodamine B assay relative to control
Assay type: functional
Conditions: BT-549, 48 h, read-out: Activity

SMILES	growth at 10 µM [%]
Cc1cccc(Nc2ncnc3oc(C)c(C(=O)NCCO)c23)c1	90.7

Test system: SN12C
Assay: Growth inhibition of human SN12C cells assessed as cell growth at 10 uM incubated for 48 hrs by sulforhodamine B assay relative to control
Assay type: functional
Conditions: read-out: Activity

SMILES	growth at 10 µM [%]
Cc1cccc(Nc2ncnc3oc(C)c(C(=O)NCCO)c23)c1	97.1

Test system: SF-268
Assay: Growth inhibition of human SF268 cells assessed as cell growth at 10 uM incubated for 48 hrs by sulforhodamine B assay relative to control
Assay type: functional
Conditions: SF-268, 48 h, read-out: Activity

SMILES	growth at 10 µM [%]
Cc1cccc(Nc2ncnc3oc(C)c(C(=O)NCCO)c23)c1	98.4

Test system: NCI-H23
Assay: Growth inhibition of human NCI-H23 cells assessed as cell growth at 10 uM incubated for 48 hrs by sulforhodamine B assay relative to control
Assay type: functional
Conditions: NCI-H23, 48 h, read-out: Activity

SMILES	growth at 10 µM [%]
Cc1cccc(Nc2ncnc3oc(C)c(C(=O)NCCO)c23)c1	92.8

Test system: TK-10
Assay: Growth inhibition of human TK10 cells assessed as cell growth at 10 uM incubated for 48 hrs by sulforhodamine B assay relative to control
Assay type: functional
Conditions: TK-10, 48 h, read-out: Activity

SMILES	growth at 10 µM [%]
Cc1cccc(Nc2ncnc3oc(C)c(C(=O)NCCO)c23)c1	102

Test system: A549
Assay: Growth inhibition of human A549/ATCC cells assessed as cell growth at 10 uM incubated for 48 hrs by sulforhodamine B assay relative to control
Assay type: functional
Conditions: A549, 48 h, read-out: Activity

SMILES	growth at 10 µM [%]
Cc1cccc(Nc2ncnc3oc(C)c(C(=O)NCCO)c23)c1	89.4

Test system: OVCAR-3
Assay: Growth inhibition of human OVCAR3 cells assessed as cell growth at 10 uM incubated for 48 hrs by sulforhodamine B assay relative to control
Assay type: functional
Conditions: OVCAR-3, 48 h, read-out: Activity

SMILES	growth at 10 µM [%]
Cc1cccc(Nc2ncnc3oc(C)c(C(=O)NCCO)c23)c1	108

Test system: HL-60(TB)
Assay: Growth inhibition of human HL-60(TB) cells assessed as cell growth at 10 uM incubated for 48 hrs by sulforhodamine B assay relative to control
Assay type: functional
Conditions: HL-60, 48 h, read-out: Activity

SMILES	growth at 10 µM [%]
Cc1cccc(Nc2ncnc3oc(C)c(C(=O)NCCO)c23)c1	84.6

Test system: SF-295
Assay: Growth inhibition of human SF295 cells assessed as cell growth at 10 uM incubated for 48 hrs by sulforhodamine B assay relative to control
Assay type: functional
Conditions: SF-295, 48 h, read-out: Activity

SMILES	growth at 10 µM [%]
Cc1cccc(Nc2ncnc3oc(C)c(C(=O)NCCO)c23)c1	96.3

Test system: Malme-3M
Assay: Growth inhibition of human MALME-3M cells assessed as cell growth at 10 uM incubated for 48 hrs by sulforhodamine B assay relative to control
Assay type: functional
Conditions: read-out: Activity

SMILES	growth at 10 µM [%]
Cc1cccc(Nc2ncnc3oc(C)c(C(=O)NCCO)c23)c1	109

Test system: SNB-19
Assay: Growth inhibition of human SNB19 cells assessed as cell growth at 10 uM incubated for 48 hrs by sulforhodamine B assay relative to control
Assay type: functional
Conditions: SNB-19, 48 h, read-out: Activity

SMILES	growth at 10 µM [%]
Cc1cccc(Nc2ncnc3oc(C)c(C(=O)NCCO)c23)c1	103

Test system: HCC 2998
Assay: Growth inhibition of human HCC2998 cells assessed as cell growth at 10 uM incubated for 48 hrs by sulforhodamine B assay relative to control
Assay type: functional
Conditions: HCC 2998, 48 h, read-out: Activity

SMILES	growth at 10 µM [%]
Cc1cccc(Nc2ncnc3oc(C)c(C(=O)NCCO)c23)c1	99.4

Test system: OVCAR-4
Assay: Growth inhibition of human OVCAR4 cells assessed as cell growth at 10 uM incubated for 48 hrs by sulforhodamine B assay relative to control
Assay type: functional
Conditions: OVCAR-4, 48 h, read-out: Activity

SMILES	growth at 10 µM [%]
Cc1cccc(Nc2ncnc3oc(C)c(C(=O)NCCO)c23)c1	95

Test system: RXF 393
Assay: Growth inhibition of human RXF393 cells assessed as cell growth at 10 uM incubated for 48 hrs by sulforhodamine B assay relative to control
Assay type: functional
Conditions: RXF 393, 48 h, read-out: Activity

SMILES	growth at 10 µM [%]
Cc1cccc(Nc2ncnc3oc(C)c(C(=O)NCCO)c23)c1	81.1

Test system: RPMI-8226
Assay: Growth inhibition of human RPMI8226 cells assessed as cell growth at 10 uM incubated for 48 hrs by sulforhodamine B assay relative to control
Assay type: functional
Conditions: RPMI-8226, 48 h, read-out: Activity

SMILES	growth at 10 µM [%]
Cc1cccc(Nc2ncnc3oc(C)c(C(=O)NCCO)c23)c1	95.7

Test system: HCT-116
Assay: Growth inhibition of human HCT116 cells assessed as cell growth at 10 uM incubated for 48 hrs by sulforhodamine B assay relative to control
Assay type: functional
Conditions: HCT-116, 48 h, read-out: Activity

SMILES	growth at 10 µM [%]
Cc1cccc(Nc2ncnc3oc(C)c(C(=O)NCCO)c23)c1	93

Test system: HOP-92
Assay: Growth inhibition of human HOP92 cells assessed as cell growth at 10 uM incubated for 48 hrs by sulforhodamine B assay relative to control
Assay type: functional
Conditions: HOP-92, 48 h, read-out: Activity

SMILES	growth at 10 µM [%]
Cc1cccc(Nc2ncnc3oc(C)c(C(=O)NCCO)c23)c1	94.1

Test system: MDA-MB-435
Assay: Growth inhibition of human MDA-MB-435 cells assessed as cell growth at 10 uM incubated for 48 hrs by sulforhodamine B assay relative to control
Assay type: functional
Conditions: MDA-MB-435, 48 h, read-out: Activity

SMILES	growth at 10 µM [%]
Cc1cccc(Nc2ncnc3oc(C)c(C(=O)NCCO)c23)c1	97.2

Test system: MCF7
Assay: Growth inhibition of human MCF7 cells assessed as cell growth at 10 uM incubated for 48 hrs by sulforhodamine B assay relative to control
Assay type: functional
Conditions: MCF7, 48 h, read-out: Activity

SMILES	growth at 10 µM [%]
Cc1cccc(Nc2ncnc3oc(C)c(C(=O)NCCO)c23)c1	94.8

Test system: HT-29
Assay: Growth inhibition of human HT-29 cells assessed as cell growth at 10 uM incubated for 48 hrs by sulforhodamine B assay relative to control
Assay type: functional
Conditions: HT-29, 48 h, read-out: Activity

SMILES	growth at 10 µM [%]
Cc1cccc(Nc2ncnc3oc(C)c(C(=O)NCCO)c23)c1	99.8

Test system: NCI-H322M
Assay: Growth inhibition of human NCI-H322M cells assessed as cell growth at 10 uM incubated for 48 hrs by sulforhodamine B assay relative to control
Assay type: functional
Conditions: read-out: Activity

SMILES	growth at 10 µM [%]
Cc1cccc(Nc2ncnc3oc(C)c(C(=O)NCCO)c23)c1	95

Test system: ACHN
Assay: Growth inhibition of human ACHN cells assessed as cell growth at 10 uM incubated for 48 hrs by sulforhodamine B assay relative to control
Assay type: functional
Conditions: read-out: Activity

SMILES	growth at 10 µM [%]
Cc1cccc(Nc2ncnc3oc(C)c(C(=O)NCCO)c23)c1	94.8

Test system: EKVX
Assay: Growth inhibition of human EKVX cells assessed as cell growth at 10 uM incubated for 48 hrs by sulforhodamine B assay relative to control
Assay type: functional
Conditions: read-out: Activity

SMILES	growth at 10 µM [%]
Cc1cccc(Nc2ncnc3oc(C)c(C(=O)NCCO)c23)c1	91.8

Test system: U-251
Assay: Growth inhibition of human U251 cells assessed as cell growth at 10 uM incubated for 48 hrs by sulforhodamine B assay relative to control
Assay type: functional
Conditions: U-251, 48 h, read-out: Activity

SMILES	growth at 10 µM [%]
Cc1cccc(Nc2ncnc3oc(C)c(C(=O)NCCO)c23)c1	105

Test system: 786-0
Assay: Growth inhibition of human 786-0 cells assessed as cell growth at 10 uM incubated for 48 hrs by sulforhodamine B assay relative to control
Assay type: functional
Conditions: 786-0, 48 h, read-out: Activity

SMILES	growth at 10 µM [%]
Cc1cccc(Nc2ncnc3oc(C)c(C(=O)NCCO)c23)c1	99

Test system: MDA-MB-231
Assay: Growth inhibition of human MDA-MB-231 cells assessed as cell growth at 10 uM incubated for 48 hrs by sulforhodamine B assay relative to control
Assay type: functional
Conditions: MDA-MB-231, 48 h, read-out: Activity

SMILES	growth at 10 µM [%]
Cc1cccc(Nc2ncnc3oc(C)c(C(=O)NCCO)c23)c1	84.1

Test system: MDA-MB-468
Assay: Growth inhibition of human MDA-MB-468 cells assessed as cell growth at 10 uM incubated for 48 hrs by sulforhodamine B assay relative to control
Assay type: functional
Conditions: MDA-MB-468, 48 h, read-out: Activity

SMILES	growth at 10 µM [%]
Cc1cccc(Nc2ncnc3oc(C)c(C(=O)NCCO)c23)c1	87

Test system: MOLT-4
Assay: Growth inhibition of human MOLT4 cells assessed as cell growth at 10 uM incubated for 48 hrs by sulforhodamine B assay relative to control
Assay type: functional
Conditions: MOLT-4, 48 h, read-out: Activity

SMILES	growth at 10 µM [%]
Cc1cccc(Nc2ncnc3oc(C)c(C(=O)NCCO)c23)c1	57.4

Test system: SW-620
Assay: Growth inhibition of human SW620 cells assessed as cell growth at 10 uM incubated for 48 hrs by sulforhodamine B assay relative to control
Assay type: functional
Conditions: SW-620, 48 h, read-out: Activity

SMILES	growth at 10 µM [%]
Cc1cccc(Nc2ncnc3oc(C)c(C(=O)NCCO)c23)c1	96

Test system: Hs-578T
Assay: Growth inhibition of human Hs 578T cells assessed as cell growth at 10 uM incubated for 48 hrs by sulforhodamine B assay relative to control
Assay type: functional
Conditions: read-out: Activity

SMILES	growth at 10 µM [%]
Cc1cccc(Nc2ncnc3oc(C)c(C(=O)NCCO)c23)c1	100
